Experimental data taken from patent publication US20180064153A1, “Methods of Protecting Against Brain Injury” (priority 2016, published 2018).
Read-outs that look alike come from different tables or passages of the source.

Legend:
neuropeptide Y (NPY) = details: day 16 post-blast
tau protein = details: day 16 post-blast; for Tau protein expression, CTL compared with BA: p<0.001
[1] = system: glial fibrillary acidic protein (GFAP); details: day 16 post-blast
histidine = details: for Brain Histidine Concentration: mean ± SD
carnosine = details: for Brain Carnosine Concentration: mean ± SD
[2] = system: rats exposed to a low-pressure blast wave; details: 1 h following blast
Experimental: Neurological assessment using the neurological severity score (NSS) was performed one hour following the blast and daily thereafter. […] The NSS was performed 1-h following the initial blast wave exposure. NSS assesses somatomotor and somatosensory function by evaluating the animals' activities in motor, sensory, reflexes, beam walking, and beam balancing tasks. Specifically, the following were assessed: ability to exit from a circle (3-point scale), gait on a wide surface (3-point scale), gait on a narrow surface (4-point scale), effort to remain on a narrow surface (2-point scale), reflexes (5-point scale), seeking behavior (2-point scale), beam walking (3-point scale), and beam balance (3- point scale). An observer, who was blind to the different treatment groups, tested the animals.

[3] = system: rats exposed to a low-pressure blast wave; details: 30 days supplementation
[4] = individuals taking β-alanine as a free amino acid; cited from earlier work
[5] = system: brain-derived neurotrophic factor (BDNF); details: day 16 post-blast

With NCCC(=O)O [BA, beta-alanine] the “NPY expression, CTL compared with BA” value (neuropeptide Y (NPY); CA1 subregion, p=0.011) was “significantly higher”, the “NPY expression, BA compared with PL” value (neuropeptide Y (NPY); CA1 subregion, p=0.196) was “No significant differences” and the “NPY expression, CTL compared with BA” value (neuropeptide Y (NPY); CA3 subregion, p=0.032) was “significantly greater”. The “NPY expression, BA compared with PL” value (neuropeptide Y (NPY); CA3 subregion, p=0.480) was “no differences”, the “NPY expression, CTL compared with BA” value (neuropeptide Y (NPY); DG subregion, p=0.011) was “significantly greater” and the “NPY expression, BA compared with PL” value (neuropeptide Y (NPY); DG subregion, p=0.074) was “trended (p=0.074) towards a higher response”. For the same compound, the “Tau protein expression, CTL compared with BA” value (tau protein; CA1 subregion) was “significantly lower”, the “Tau protein expression, BA compared with PL” value (tau protein; CA1 subregion, p=0.700) was “No significant differences” and the “Tau protein expression, CTL compared with BA” value (tau protein; CA3 subregion) was “significantly lower”. For the same compound, the “Tau protein expression, BA compared with PL” value (tau protein; CA3 subregion, p=1.000) was “no differences”, the “Tau protein expression, CTL compared with BA” value (tau protein; DG subregion) was “significantly lower” and the “Tau protein expression, BA compared with PL” value (tau protein; DG subregion, p=0.557) was “no differences observed”. For the same compound, the “GFAP expression, PL compared with BA” value ([1]; CA1 subregion, p=0.001) was “significantly greater”, the “GFAP expression, CTL compared with BA” value ([1]; CA1 subregion, p=0.126) was “No differences” and the “GFAP expression, PL compared with BA” value ([1]; CA3 subregion, p=0.021) was “significantly greater”. For the same compound, the “GFAP expression, BA compared with CTL” value ([1]; CA3 subregion, p=0.876) was “no differences”, the “GFAP expression, comparison between BA, PL and CTL” value ([1]; DG subregion, ANOVA p=0.387) was “no difference” and the “Brain Histidine Concentration” value (histidine; Amygdala) was 2619 ± 1467 mM. For the same compound, the “Brain Histidine Concentration” value (histidine; Cortex) was 5669 ± 4471 mM, the “Brain Histidine Concentration” value (histidine; Hippocampus) was 5632 ± 4995 mM and the “Brain Histidine Concentration” value (histidine; Hypothalamus) was 1862 ± 1794 mM. For the same compound, the “Brain Histidine Concentration” value (histidine; Thalamus) was 26025 ± 21754 mM, the “histidine content higher than PL” value (histidine; across the five regions of the brain) was 86% and the “histidine content, BA compared to PL” value (histidine; cerebral cortex, p=0.070) was “Trends towards a higher histidine content”. The “histidine content, BA compared to PL” value (histidine; hippocampus, p=0.053) was “Trends towards a higher histidine content”, the “histidine content, BA compared to PL” value (histidine; thalamus, p=0.108) was “Trends towards a higher histidine content” and the “Brain Carnosine Concentration” value (carnosine; Amygdala) was 23.2 ± 18.4 mM. The “Brain Carnosine Concentration” value (carnosine; Cortex) was 364 ± 178 mM, the “Brain Carnosine Concentration” value (carnosine; Hippocampus) was 22.4 ± 11.3 mM and the “Brain Carnosine Concentration” value (carnosine; Hypothalamus) was 22.7 ± 26.2 mM. The “Brain Carnosine Concentration” value (carnosine; Thalamus) was 50.9 ± 33.9 mM, the “carnosine content, BA compared to PL” value (carnosine; amygdala, p=0.061) was “Trends towards a difference” and the “carnosine content higher than in animals that consumed the vehicle” value (carnosine; average across the five brain regions) was 79%. For the same compound, the “carnosine content, BA compared to PL” value (carnosine; cerebral cortex, p=0.048) was “significantly higher”, the “carnosine content, BA compared to PL” value (carnosine; hippocampus, p=0.058) was “Trends towards a difference” and the “NSS: reflex responses, motor coordination, motor strength, sensory function, BA vs PL” value [2] was “No significant differences”. The “prevalence of animals demonstrating the comorbid pattern of mTBI+PTSD” value ([3]; 2/49) was 4%, the “prevalence of PTSD” value ([3]; 5/49) was 10.2% and the “prevalence of animals demonstrating mTBI” value ([3]; 13/49) was 26.5%. The “duration of flushing/tingling (paraesthesia) of the skin” value [4] was “less than 60 minutes”, the “BDNF expression, BA compared with PL” value ([5]; CA1 subregion, p=0.009) was “significantly higher” and the “BDNF expression, CTL compared with BA” value ([5]; CA1 subregion, p=0.025) was “significantly higher”. The “BDNF expression, CTL compared with BA” value ([5]; CA3 subregion, p=0.005) was “significantly greater”, the “BDNF expression, BA compared with PL” value ([5]; CA3 subregion, p=0.110) was “No difference” and the “BDNF expression, CTL compared with BA” value ([5]; DG subregion, p=0.005) was “significantly greater”. For the same compound, the “BDNF expression, BA compared with PL” value ([5]; DG subregion, p=0.136) was “no differences”.
